Data from patent US20240277658A1, “NLRP3 ACTIVATORS FOR USE IN THE TREATMENT OF INFECTIOUS DISEASES OR CANCER BY ACTIVATING NLRP3 INFLAMMASOME” (ALBERT-LUDWIGS-UNIVERSITÄT FREIBURG, priority 2020, published 2024).
Read-outs that look alike come from different tables or passages of the source.

Key:
[1] = system: BMDCs; test: LDH release (lytic cell death, pyroptosis) from LPS-primed BMDCs; format: cell-based, mouse; settings: for Average (% positive control): LDH release; for cytotoxicity at 10 µM / cytotoxicity at 20 µM / cytotoxicity at 25 µM / cytotoxicity at 50 µM / cytotoxicity at 18.75 µM: Mus musculus, BMDC; for cytotoxicity at 50 µM: LPS-primed BMDCs
Method in brief: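 LDH released into medium, detected colorimetrically, served as the pyroptosis read-out in triplicate. LPS-primed (50 ng ml^−1, 3 h) murine bone marrow-derived dendritic cells received test compounds, typically 50 μM, or nigericin (5 μM), R837 or CL097 (100 μM) for 3 hours.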

[2] = system: NLRP3; test: Inflammasome stimulation (IL-1β, LDH release) in BMDCs from NLRP3 knockout or ASC knockout mice; format: cell-based, mouse; settings: IL-1β and LDH release
Description: (§1) For canonical inflammasome activation BMDCs after 7-9 days of differentiation were harvested and counted with a Neubauer Chamber (Hecht Assistant) and the concentration was set to 1 Mio cells ml^−1. 100 μl cell suspension per well were seeded in 96-well plates. The cells were primed with 50 ng ml^−1 E. coli K12 ultra-pure LPS for 3 hours and subsequently treated with canonical inflammasome activators or experimental compounds for 3 hours if not indicated differently (incubation time FIG. 4D, 5, 7, 8, 11, 13-18: 3 h, FIG. 12: 4 h). Concentrations of the stimuli were as follows if not indicated differently: 5 μM nigericin, 100 μM imiquimod (also known as R837), 100 μM CL097, 100 μM R848, […] poly(dA:dT), 300 μg ml^−1 MSU. If an inhibitor was used before stimuli treatment, the inhibitor was added after 2.5 hours of priming and it was incubated for 30 minutes before inflammasome activation. Inhibitors were used as follows: 3 μM MCC950, 45 mM KCl, 30 μM ebselen (2-Phenyl-1,2-benzoselenazol-3-one), 5 μM cytochalasin D (see FIGS. 8, 11, 12 and 17).
(§2) All inflammasome stimulations were performed in three technical replicates for each condition. Lytic cell death was determined via LDH release (see FIGS. 8, 13-16 and 18), cytokines quantified in cell-free supernatants via ELISA (see FIGS. 4D, 7-9, 11-19) and cell lysates and supernatants analyzed via immunoblotting (see FIGS. 5A and 5B) as previously described in detail (Gross, Olaf, 2012 “Measuring the inflammasome”, Methods in molecular biology, Clifton, N.J., 844, pp. 199-222. Schneider, Katharina S.; Thomas, Christina J.; Groß, Olaf, 2013, “Inflammasome activation and inhibition in primary murine bone marrow-derived cells, and assays for IL-1α, IL-1β, and caspase-1”, Methods in molecular biology, Clifton, N.J., 1040, pp. 117-135).

[3] = target: T1, NLRP3 inflammasome (Mus musculus, UniProt Q8R4B8); test: Inflammasome stimulation of BMDCs after pre-incubation with inhibitors (MCC950, KCl, ebselen, cytochalasin D); format: cell-based
T1 construct: endogenous in cells; host or cells: primary mouse bone marrow-derived dendritic cells (BMDCs), LPS-primed
Description: as §1, with “Inhibitors were used as follows: 3 μM MCC950, 45 mM KCl, 30 μM ebselen (2-Phenyl-1,2-benzoselenazol-3-one), 5 μM cytochalasin D (see FIGS. 8, 11, 12 and 17).” left out
as §2

T1 sequence (Q8R4B8 whole entry): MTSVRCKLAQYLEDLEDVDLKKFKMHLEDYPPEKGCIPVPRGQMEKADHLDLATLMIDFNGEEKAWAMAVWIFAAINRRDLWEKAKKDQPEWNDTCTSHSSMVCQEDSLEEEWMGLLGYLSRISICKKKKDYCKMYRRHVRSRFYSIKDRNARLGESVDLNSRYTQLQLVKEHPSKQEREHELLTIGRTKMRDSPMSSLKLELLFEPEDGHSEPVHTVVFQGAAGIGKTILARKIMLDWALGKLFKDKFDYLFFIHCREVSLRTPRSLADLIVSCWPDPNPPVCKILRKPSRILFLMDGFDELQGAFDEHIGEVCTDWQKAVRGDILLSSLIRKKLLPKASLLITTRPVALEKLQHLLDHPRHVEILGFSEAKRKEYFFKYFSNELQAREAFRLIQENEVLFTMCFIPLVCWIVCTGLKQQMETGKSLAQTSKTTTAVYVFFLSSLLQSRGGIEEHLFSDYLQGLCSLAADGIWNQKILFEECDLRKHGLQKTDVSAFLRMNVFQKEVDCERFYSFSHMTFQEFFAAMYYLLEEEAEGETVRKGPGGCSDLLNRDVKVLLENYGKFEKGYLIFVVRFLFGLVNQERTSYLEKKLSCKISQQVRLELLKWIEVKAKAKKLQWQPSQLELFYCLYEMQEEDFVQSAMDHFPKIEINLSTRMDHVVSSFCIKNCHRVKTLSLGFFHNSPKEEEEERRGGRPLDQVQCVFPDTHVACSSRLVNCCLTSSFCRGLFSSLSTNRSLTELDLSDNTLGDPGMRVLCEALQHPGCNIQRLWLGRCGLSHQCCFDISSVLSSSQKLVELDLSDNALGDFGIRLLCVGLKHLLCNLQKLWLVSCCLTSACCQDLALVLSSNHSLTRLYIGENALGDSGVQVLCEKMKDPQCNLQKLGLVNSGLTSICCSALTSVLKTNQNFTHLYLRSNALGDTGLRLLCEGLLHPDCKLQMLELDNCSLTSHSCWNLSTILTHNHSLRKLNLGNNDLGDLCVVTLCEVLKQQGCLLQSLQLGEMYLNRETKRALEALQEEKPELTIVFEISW

- dependence of NLRP3 inflammasome activation on potassium efflux from the cell ([3]; 50 mM extracellular KCl, FIGS. 11 and 17): independently of potassium efflux
- effect of the endocytosis inhibitor cytochalasin D on NLRP3 activation ([3]; LPS-primed wild-type BMDCs, FIG. 12): has no effect
- effect of the NLRP3-specific inhibitor MCC950 on inflammasome activation by the compound ([3]; wild-type BMDCs, compound 50 μM, FIG. 8): completely suppresses
Structure (SMILES): O=C(Nc1ccccc1)Nc1ccc2ncccc2c1 [EN22, 1-phenyl-3-(quinolin-6-yl)urea]
- Average (% positive control) ([1]; 10 μM, positive control EN22 10 μM): 100.000 % positive control
- Average (% positive control) ([1]; 20 μM, positive control EN22 20 μM): 100.000 % positive control
- Average (% positive control) ([1]; 25 μM, positive control EN22 25 μM): 100.000 % positive control
- Average (% positive control) ([1]; compound 50 μM, positive control nigericin 5 μM): 95.180 % positive control
- cytotoxicity at 10 µM ([1]; 10 μM, individual replicate values, read-out: LDH release (% of max.)): 78.1%
- cytotoxicity at 10 µM ([1]; 10 μM, read-out: Average LDH release (% of max.)): 76.8%
- cytotoxicity at 20 µM ([1]; 20 μM, individual replicate values, read-out: LDH release (% of max.)): 49.4%
- cytotoxicity at 20 µM ([1]; 20 μM, read-out: Average LDH release (% of max.)): 53.3%
- cytotoxicity at 25 µM ([1]; 25 μM, EN11 series table, read-out: Average LDH release (% of max.)): 50.8%
- cytotoxicity at 25 µM ([1]; 25 μM, individual replicate values, EN11 series table, read-out: LDH release (% of max.)): 51.9%
- cytotoxicity at 50 µM ([1]; compound 50 μM, read-out: Average LDH release (% of max.)): 69.6%
- cytotoxicity at 25 µM ([1]; section 1.2, 25 μM, read-out: Average LDH release (% of max.)): 30%
- cytotoxicity at 25 µM ([1]; section 1.2, single replicates, 25 μM, read-out: LDH release (% of max.)): 29.6%
- cytotoxicity at 18.75 µM ([1]; section 1.4, 18.75 μM, read-out: Average LDH release (% of max.)): 71.3%
- cytotoxicity at 18.75 µM ([1]; section 1.4, single replicates, 18.75 μM, read-out: LDH release (% of max.)): 71.4%
- cytotoxicity at 50 µM ([1]; single replicates, compound 50 μM, read-out: LDH release (% of max.)): 59.4%
- Average (% positive control) ([1]; section 1.2, 25 μM, positive control EN22 25 μM): 100.000 % positive control
- Average (% positive control) ([1]; section 1.4, 18.75 μM, positive control EN22 18.75 μM): 100.000 % positive control
- characteristics of inflammasome activation in cells isolated from NLRP3 knockout mice [2]: do not occur
